Measured values as given in PMC6409085, “Three odorant-binding proteins are involved in the behavioral response of Sogatella furcifera to rice plant volatiles” (PeerJ, 2019).
Several values for one entry are separate records, joined by “and”; a condition that tells them apart may be missing. Equal values may be shown once.

Columns and labels:
Assay in all cases: biochemical
Type in all cases: binding
[1] = molecular target: SfurOBP2 (Sogatella furcifera, UniProt V5T759)
Summary of the method: (§1)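 Protein 2.0 µM + 1-NPN 2.0 µM, 50 mM Tris-HCl pH 7.4; competitor odorants 2, 4 … 20 µM final; read 2 min post-addition, ex 337/em 390–490 nm; n=3. K1-NPN from 1-NPN titration/Scatchard; Ki from IC50 corrected for free 1-NPN.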

[2] = molecular target: SfurOBP11 (Sogatella furcifera, UniProt V5T6E3)
Chain of SfurOBP11 (V5T6E3 entry or part of it): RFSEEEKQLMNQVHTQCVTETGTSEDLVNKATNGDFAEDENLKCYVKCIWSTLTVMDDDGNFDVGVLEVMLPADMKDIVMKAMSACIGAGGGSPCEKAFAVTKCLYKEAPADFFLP
Summary of the method: as §1

[3] = molecular target: SfurOBP1 (Sogatella furcifera, UniProt V5T8N5); conditions: for Fluorescence competitive binding assay, fluorescence intensity: OBP1, three replicate columns
Chain of SfurOBP1 (V5T8N5 entry or part of it): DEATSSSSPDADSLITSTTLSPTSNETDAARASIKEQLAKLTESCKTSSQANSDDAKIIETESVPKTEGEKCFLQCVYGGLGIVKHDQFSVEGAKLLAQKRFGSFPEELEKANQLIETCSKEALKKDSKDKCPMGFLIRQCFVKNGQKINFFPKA
Summary of the method: as §1

[4] = molecular target: SfurOBP3 (Sogatella furcifera, UniProt V5T818); conditions: for Fluorescence competitive binding assay, fluorescence intensity: OBP3, three replicate columns
Chain of SfurOBP3 (V5T818 entry or part of it): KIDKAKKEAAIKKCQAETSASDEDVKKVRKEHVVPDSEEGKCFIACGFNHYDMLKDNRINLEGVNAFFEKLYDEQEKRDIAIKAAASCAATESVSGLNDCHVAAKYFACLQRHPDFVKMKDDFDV
Summary of the method: as §1

Chain of SfurOBP2 (V5T759 entry or part of it): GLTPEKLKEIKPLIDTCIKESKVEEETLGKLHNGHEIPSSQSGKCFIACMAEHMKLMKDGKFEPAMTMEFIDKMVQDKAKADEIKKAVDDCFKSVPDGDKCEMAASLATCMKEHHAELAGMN

## C/C(=C\CO)CCC[C@H](C)CCC[C@H](C)CCCC(C)C [plant alcohol]
[1]; SfurOBP2, protein and 1-NPN both 2.0 µM, competitor 2-20 µM, read-out: IC50
  IC50: > 20 µM
[1]; ligand concentration 2 (unit not given), replicate column 1 of 3
  Fluorescence competitive binding assay, OBP2 (raw fluorescence reading): 15935
[1]; ligand concentration 2 (unit not given), replicate column 2 of 3
  Fluorescence competitive binding assay, OBP2 (raw fluorescence reading): 15877
[1]; ligand concentration 2 (unit not given), replicate column 3 of 3
  Fluorescence competitive binding assay, OBP2 (raw fluorescence reading): 16010
[1]; ligand concentration 4 (unit not given), replicate column 1 of 3
  Fluorescence competitive binding assay, OBP2 (raw fluorescence reading): 16483
[1]; ligand concentration 4 (unit not given), replicate column 2 of 3
  Fluorescence competitive binding assay, OBP2 (raw fluorescence reading): 17483
[1]; ligand concentration 4 (unit not given), replicate column 3 of 3
  Fluorescence competitive binding assay, OBP2 (raw fluorescence reading): 15472
[1]; ligand concentration 6 (unit not given), replicate column 1 of 3
  Fluorescence competitive binding assay, OBP2 (raw fluorescence reading): 19539
[1]; ligand concentration 6 (unit not given), replicate column 2 of 3
  Fluorescence competitive binding assay, OBP2 (raw fluorescence reading): 15243
[1]; ligand concentration 6 (unit not given), replicate column 3 of 3
  Fluorescence competitive binding assay, OBP2 (raw fluorescence reading): 16407
[1]; ligand concentration 8 (unit not given), replicate column 1 of 3
  Fluorescence competitive binding assay, OBP2 (raw fluorescence reading): 19867
[1]; ligand concentration 8 (unit not given), replicate column 2 of 3
  Fluorescence competitive binding assay, OBP2 (raw fluorescence reading): 20728
[1]; ligand concentration 8 (unit not given), replicate column 3 of 3
  Fluorescence competitive binding assay, OBP2 (raw fluorescence reading): 17103
[1]; ligand concentration 10 (unit not given), replicate column 1 of 3
  Fluorescence competitive binding assay, OBP2 (raw fluorescence reading): 20161
[1]; ligand concentration 10 (unit not given), replicate column 2 of 3
  Fluorescence competitive binding assay, OBP2 (raw fluorescence reading): 19779
[1]; ligand concentration 10 (unit not given), replicate column 3 of 3
  Fluorescence competitive binding assay, OBP2 (raw fluorescence reading): 18765
[1]; ligand concentration 12 (unit not given), replicate column 1 of 3
  Fluorescence competitive binding assay, OBP2 (raw fluorescence reading): 19327
[1]; ligand concentration 12 (unit not given), replicate column 2 of 3
  Fluorescence competitive binding assay, OBP2 (raw fluorescence reading): 19917
[1]; ligand concentration 12 (unit not given), replicate column 3 of 3
  Fluorescence competitive binding assay, OBP2 (raw fluorescence reading): 19157
[1]; ligand concentration 14 (unit not given), replicate column 1 of 3
  Fluorescence competitive binding assay, OBP2 (raw fluorescence reading): 20768
[1]; ligand concentration 14 (unit not given), replicate column 2 of 3
  Fluorescence competitive binding assay, OBP2 (raw fluorescence reading): 19570
[1]; ligand concentration 14 (unit not given), replicate column 3 of 3
  Fluorescence competitive binding assay, OBP2 (raw fluorescence reading): 20399
[1]; ligand concentration 16 (unit not given), replicate column 1 of 3
  Fluorescence competitive binding assay, OBP2 (raw fluorescence reading): 18977
[1]; ligand concentration 16 (unit not given), replicate column 2 of 3
  Fluorescence competitive binding assay, OBP2 (raw fluorescence reading): 19385
[1]; ligand concentration 16 (unit not given), replicate column 3 of 3
  Fluorescence competitive binding assay, OBP2 (raw fluorescence reading): 18242
[1]; ligand concentration 18 (unit not given), replicate column 1 of 3
  Fluorescence competitive binding assay, OBP2 (raw fluorescence reading): 20374
[1]; ligand concentration 18 (unit not given), replicate column 2 of 3
  Fluorescence competitive binding assay, OBP2 (raw fluorescence reading): 20001
[1]; ligand concentration 18 (unit not given), replicate column 3 of 3
  Fluorescence competitive binding assay, OBP2 (raw fluorescence reading): 19071
[1]; ligand concentration 20 (unit not given), replicate column 1 of 3
  Fluorescence competitive binding assay, OBP2 (raw fluorescence reading): 20399
[1]; ligand concentration 20 (unit not given), replicate column 2 of 3
  Fluorescence competitive binding assay, OBP2 (raw fluorescence reading): 20700
[1]; ligand concentration 20 (unit not given), replicate column 3 of 3
  Fluorescence competitive binding assay, OBP2 (raw fluorescence reading): 18461
[2]; SfurOBP11, protein and 1-NPN both 2.0 µM, competitor 2-20 µM, read-out: IC50
  IC50: 3.5 µM
[2]; ligand concentration 2, replicate 1
  Fluorescence intensity, fluorescence competitive binding assay, OBP11: 16266
[2]; ligand concentration 2, replicate 2
  Fluorescence intensity, fluorescence competitive binding assay, OBP11: 15087
[2]; ligand concentration 2, replicate 3
  Fluorescence intensity, fluorescence competitive binding assay, OBP11: 17001
[2]; ligand concentration 4, replicate 1
  Fluorescence intensity, fluorescence competitive binding assay, OBP11: 17687
[2]; ligand concentration 4, replicate 2
  Fluorescence intensity, fluorescence competitive binding assay, OBP11: 17526
[2]; ligand concentration 4, replicate 3
  Fluorescence intensity, fluorescence competitive binding assay, OBP11: 17848
[2]; ligand concentration 6, replicate 1
  Fluorescence intensity, fluorescence competitive binding assay, OBP11: 16356
[2]; ligand concentration 6, replicate 2
  Fluorescence intensity, fluorescence competitive binding assay, OBP11: 18409
[2]; ligand concentration 6, replicate 3
  Fluorescence intensity, fluorescence competitive binding assay, OBP11: 17383
[2]; ligand concentration 8, replicate 1
  Fluorescence intensity, fluorescence competitive binding assay, OBP11: 17184
[2]; ligand concentration 8, replicate 2
  Fluorescence intensity, fluorescence competitive binding assay, OBP11: 18342
[2]; ligand concentration 8, replicate 3
  Fluorescence intensity, fluorescence competitive binding assay, OBP11: 18652
[2]; ligand concentration 10, replicate 1
  Fluorescence intensity, fluorescence competitive binding assay, OBP11: 18889
[2]; ligand concentration 10, replicate 2
  Fluorescence intensity, fluorescence competitive binding assay, OBP11: 17441
[2]; ligand concentration 10, replicate 3
  Fluorescence intensity, fluorescence competitive binding assay, OBP11: 20338
[2]; ligand concentration 12, replicate 1
  Fluorescence intensity, fluorescence competitive binding assay, OBP11: 19011
[2]; ligand concentration 12, replicate 2
  Fluorescence intensity, fluorescence competitive binding assay, OBP11: 18892
[2]; ligand concentration 12, replicate 3
  Fluorescence intensity, fluorescence competitive binding assay, OBP11: 20835
[2]; ligand concentration 14, replicate 1
  Fluorescence intensity, fluorescence competitive binding assay, OBP11: 21007
[2]; ligand concentration 14, replicate 2
  Fluorescence intensity, fluorescence competitive binding assay, OBP11: 21377
[2]; ligand concentration 14, replicate 3
  Fluorescence intensity, fluorescence competitive binding assay, OBP11: 20817
[2]; ligand concentration 16, replicate 1
  Fluorescence intensity, fluorescence competitive binding assay, OBP11: 23140
[2]; ligand concentration 16, replicate 2
  Fluorescence intensity, fluorescence competitive binding assay, OBP11: 21703
[2]; ligand concentration 16, replicate 3
  Fluorescence intensity, fluorescence competitive binding assay, OBP11: 22422
[2]; ligand concentration 18, replicate 1
  Fluorescence intensity, fluorescence competitive binding assay, OBP11: 27356
[2]; ligand concentration 18, replicate 2
  Fluorescence intensity, fluorescence competitive binding assay, OBP11: 26038
[2]; ligand concentration 18, replicate 3
  Fluorescence intensity, fluorescence competitive binding assay, OBP11: 25306
[2]; ligand concentration 20, replicate 1
  Fluorescence intensity, fluorescence competitive binding assay, OBP11: 26659
[2]; ligand concentration 20, replicate 2
  Fluorescence intensity, fluorescence competitive binding assay, OBP11: 25183
[2]; ligand concentration 20, replicate 3
  Fluorescence intensity, fluorescence competitive binding assay, OBP11: 25906
[3]; ligand concentration 2 (μM)
  Fluorescence competitive binding assay, fluorescence intensity: 7330 and 7109 and 7550
[3]; ligand concentration 4 (μM)
  Fluorescence competitive binding assay, fluorescence intensity: 7885 and 9070 and 8350
[3]; ligand concentration 6 (μM)
  Fluorescence competitive binding assay, fluorescence intensity: 9355 and 9996 and 9183
[3]; ligand concentration 8 (μM)
  Fluorescence competitive binding assay, fluorescence intensity: 11640 and 10265 and 9349
[3]; ligand concentration 10 (μM)
  Fluorescence competitive binding assay, fluorescence intensity: 10389 and 10452 and 10917
[3]; ligand concentration 12 (μM)
  Fluorescence competitive binding assay, fluorescence intensity: 10679 and 10989 and 10151
[3]; ligand concentration 14 (μM)
  Fluorescence competitive binding assay, fluorescence intensity: 12105 and 10979 and 11552
[3]; ligand concentration 16 (μM)
  Fluorescence competitive binding assay, fluorescence intensity: 10141 and 15672 and 8010
[3]; ligand concentration 18 (μM)
  Fluorescence competitive binding assay, fluorescence intensity: 13868 and 12649 and 12554
[3]; ligand concentration 20 (μM)
  Fluorescence competitive binding assay, fluorescence intensity: 12803 and 13119 and 10975
[3]; SfurOBP1, protein and 1-NPN both 2.0 µM, competitor 2-20 µM, read-out: IC50
  IC50: > 20 µM
[4]; ligand concentration 2
  Fluorescence competitive binding assay, fluorescence intensity: 81785 and 76872 and 83999
[4]; ligand concentration 4
  Fluorescence competitive binding assay, fluorescence intensity: 101881 and 87909 and 87470
[4]; ligand concentration 6
  Fluorescence competitive binding assay, fluorescence intensity: 71457 and 61006 and 51881
[4]; ligand concentration 8
  Fluorescence competitive binding assay, fluorescence intensity: 71819 and 64171 and 69972
[4]; ligand concentration 10
  Fluorescence competitive binding assay, fluorescence intensity: 63459 and 67080 and 84824
[4]; ligand concentration 12
  Fluorescence competitive binding assay, fluorescence intensity: 64327 and 73125 and 73637
[4]; ligand concentration 14
  Fluorescence competitive binding assay, fluorescence intensity: 85412 and 71741 and 71210
[4]; ligand concentration 16
  Fluorescence competitive binding assay, fluorescence intensity: 78313 and 80279 and 70309
[4]; ligand concentration 18
  Fluorescence competitive binding assay, fluorescence intensity: 77162 and 77902 and 55555
[4]; ligand concentration 20
  Fluorescence competitive binding assay, fluorescence intensity: 68113 and 75065 and 101895
[4]; SfurOBP3, protein and 1-NPN both 2.0 µM, competitor 2-20 µM, read-out: IC50
  IC50: > 20 µM
